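Briefly, cells in 96-well plates were exposed to five compound concentrations for 48 h, and endpoints were estimated by linear interpolation. TGI marks complete inhibition of growth.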
Assays:
Assay in all cases: NCI-60 cell line screen, 48 h
LXFL 529 NSCLC = tested on: LXFL 529 NSCLC
HOP-18 NSCLC = tested on: HOP-18 NSCLC
DMS 273 small cell lung = tested on: DMS 273 small cell lung
DMS 114 small cell lung = tested on: DMS 114 small cell lung
KM20L2 colon = tested on: KM20L2 colon
DLD-1 colon = tested on: DLD-1 colon
SNB-78 CNS = tested on: SNB-78 CNS
M19-MEL melanoma = tested on: M19-MEL melanoma
RXF-631 renal = tested on: RXF-631 renal

Structure (SMILES)	TGI (LXFL 529 NSCLC) [µM]	TGI (HOP-18 NSCLC) [µM]	TGI (DMS 273 small cell lung) [µM]	TGI (DMS 114 small cell lung) [µM]	TGI (KM20L2 colon) [µM]	TGI (DLD-1 colon) [µM]	TGI (SNB-78 CNS) [µM]	TGI (M19-MEL melanoma) [µM]	TGI (RXF-631 renal) [µM]
O=Cc1ccccc1COC(=O)c1cc(C(=O)OCc2ccccc2C=O)c(C(=O)OCc2ccccc2C=O)cc1C(=O)OCc1ccccc1C=O	> 100	> 100	> 100	> 100	> 100	> 100	> 100	> 100	–
CC1=CCC(O)C=CC(C)C(O)C(C)C=C(C)C(=O)c2c(O)c(C)cc3c2C(=O)C(N)=C(NC(=O)/C=C\C=C/C=CC(C)C(O)CC1=O)C3=O (centres undefined)	> 100	–	> 100	> 100	> 100	> 100	> 100	> 100	–
Cn1c(O)c(C(=O)NC2CCCCC2)c(=O)n(C)c1=S	16	9.63	–	–	23.4	24	–	–	20.1
O=C1c2ccsc2C(=O)c2sc(CO)cc21	0.304	0.113	0.115	–	0.352	0.326	0.978	–	–
CCCCCCCCCCCC(=O)OCC(C[As](=O)(O)O)OC(=O)CCCCCCCCCCC (centres undefined)	5.21	14.1	10.1	3.13	20	31.3	7.69	15.8	–
COC(=O)CC1N=C(NC#N)N(CCc2c[nH]c3ccccc23)C1=O (centres undefined)	> 100	–	> 100	> 100	> 100	> 100	> 100	> 100	–
CCN(CC)C1CC(O[C@H]2C[C@](O)(C(=O)CO)Cc3c(O)c4c(c(O)c32)C(=O)c2c(OC)cccc2C4=O)OC(C)C1O (some centres undefined)	1.1	–	0.161	0.274	0.416	0.26	0.785	0.167	11.9
CN(C)CC1CCCC(CN(C)C)C1OC(=O)c1ccccc1 (centres undefined)	> 100	> 100	> 100	–	> 100	> 100	> 100	> 100	–
C[Si](C)(C)OC1CC(=O)OC1n1cc(F)c(=O)[nH]c1=O (centres undefined)	> 100	> 100	> 100	> 100	> 100	> 100	–	> 100	> 100
CC(=O)O[C@H]1C(=O)[C@@]2(C)C(C(OC(=O)c3ccccc3)[C@]3(O)CC(OC(=O)C(O)C(NC(=O)c4ccc(C(F)(F)F)cc4)c4ccccc4)C(C)=C1C3(C)C)[C@]1(OC(C)=O)CO[C@@H]1C[C@@H]2O (some centres undefined)	–	31	0.53	0.122	0.174	28.9	10.1	0.271	–
COc1cc2cc3c4cc(OC)c(OC)cc4cc[n+]3c(C)c2cc1OC (tested in a mixture with another compound)	> 100	> 100	> 100	> 100	> 100	> 100	> 92.9	> 100	–

— PubChem BioAssay (NCI)
